From US20120053168A1, “FUSED BENZOAZEPINES AS NEURONAL NICOTINIC ACETYLCHOLINE RECEPTOR LIGANDS” (Targacept, Inc., priority 2009, published 2012)

Key:
[1] = target: T1, Rat α4β2 nAChR subtype (Rattus norvegicus, UniProt P09483+P12390); experiment: [3H]nicotine radioligand binding, membranes from rat cortex
T1 construct: from tissue; host or cells: rat cerebral cortex membranes (female Sprague-Dawley)
Procedure: Preparation of membranes from rat cortex: Rats (female, Sprague-Dawley), weighing 150-250 g, were maintained on a 12 h light/dark cycle and were allowed free access to water and food supplied by PMI Nutrition International, Inc. Animals were anesthetized with 70% CO2, and then decapitated. Brains were removed and placed on an ice-cold platform. The cerebral cortex was removed and placed in 20 volumes (weight:volume) of ice-cold preparative buffer (137 mM NaCl, 10.7 mM KCl, 5.8 mM KH2PO4, 8 mM Na2HPO4, 20 mM HEPES (free acid), 5 mM iodoacetamide, 1.6 mM EDTA, pH 7.4); PMSF, dissolved in methanol to a final concentration of 100 μM, was added and the suspension was homogenized by Polytron. The homogenate was centrifuged at 18,000×g for 20 min at 4° C. and the resulting pellet was re-suspended in 20 volumes of ice-cold water. After 60 min incubation on ice, a new pellet was collected by centrifugation at 18,000×g for 20 min at 4° C. The final pellet was re-suspended in 10 volumes of buffer and stored at ˜20° C.
(§1) On the day of the assay, the frozen membranes were thawed and spun at 48,000×g for 20 min. The supernatant was decanted and discarded. The pellet was resuspended in Dulbecco's phosphate buffered saline (PBS, Life Technologies) pH 7.4 and homogenized with the Polytron for 6 seconds. Protein concentrations were determined using a Pierce BCA Protein Assay Kit, with bovine serum albumin as the standard (Pierce Chemical Company, Rockford, Ill.).
(§2) Assay: Membrane preparations (approximately 50 μg for human and 200-300 μg protein for rat α4β2) were incubated in PBS (50 μL and 100 μL respectively) in the presence of competitor compound (0.01 nM to 100 μM) and 5 nM [^3H]nicotine for 2-3 hours on ice. Incubation was terminated by rapid filtration on a multi-manifold tissue harvester (Brandel, Gaithersburg, Md.) using GF/B filters presoaked in 0.33% polyethyleneimine (w/v) to reduce non-specific binding. Tissue was rinsed 3 times in PBS, pH 7.4. Scintillation fluid was added to filters containing the washed tissue and allowed to equilibrate. Filters were then counted to determine radioactivity bound to the membranes by liquid scintillation counting (2200CA Tri-Carb LSC, Packard Instruments, 50% efficiency or Wallac Trilux 1450 MicroBeta, 40% efficiency, Perkin Elmer).
(§3) Data were expressed as disintegrations per minute (DPMs). Within each assay, each point had 2-3 replicates. The replicates for each point were averaged and plotted against the log of the drug concentration. IC50, which is the concentration of the compound that produces 50% inhibition of binding, was determined by least squares non-linear regression. Ki values were calculated using the Cheng-Prussof equation (1973): […]
(§4) where N is the concentration of [^3H]nicotine and Kd is the affinity of nicotine (3 nM, determined in a separate experiment).

[2] = target: T2, human ganglionic nAChR subtype (Homo sapiens, UniProt P30926+P32297); experiment: 86Rb+ efflux in SH-SY5Y cells (human ganglionic nAChR subtype); format: cell-based
T2 construct: endogenous in cells; host or cells: SH-SY5Y human neuroblastoma cells
Excerpt: Example 8: Interaction at the Human Ganglionic nAChR Subtype
The cell line SH-SY5Y is a continuous line derived by sequential subcloning of the parental cell line, SK-N-SH, which was originally obtained from a human peripheral neuroblastoma. SH-SY5Y cells express a ganglion-like nAChR (Lukas et al., Mol. Cell. Neurosci. 4: 1 (1993)).
Human SH-SY5Y cells were maintained in proliferative growth phase according to routine protocols (Bencherif et al., Mol. Cell. Neurosci. 2: 52 (1991) and Bencherif et al., J. Pharmacol. Exp. Ther. 257: 946 (1991)). Cells were cultured in Dulbecco's modified Eagle's medium (Gibco/BRL) with 10% horse serum (Gibco/BRL), 5% fetal bovine serum (HyClone, Logan Utah), 1 mM sodium pyruvate, 4 mM L-Glutamine, and 50,000 units penicillin-streptomycin (Irvine Scientific). When cells were 80% confluent, they were plated to 12 well polystyrene plates (Costar). […]
Nicotinic acetylcholine receptor (nAChR) function was assayed using ^86Rb^+efflux according to a method described by Lukas et al., Anal. Biochem. 175: 212 (1988). […] Scintillation fluid was added and released radioactivity was measured by liquid scintillation counting. […]
When appropriate, dose-response curves of test compound were determined. The maximal activation for individual compounds (Emax) was determined as a percentage of the maximal activation induced by L-nicotine. […]

[3] = target: T3, Human α4β2 nAChR subtype (Homo sapiens, UniProt P17787+P43681); experiment: [3H]nicotine radioligand binding, membranes from SH-EP1/human α4β2 clonal cells
T3 construct: expressed in transfected cells; host or cells: SH-EP1 clonal cells
Procedure: Preparation of membranes from SH-EP1/human α4β2 clonal cells:
Cell pellets from 40 150 mm culture dishes were pooled, and homogenized by Polytron (Kinematica GmbH, Switzerland) in 20 milliliters of ice-cold preparative buffer. The homogenate was centrifuged at 48,000 g for 20 minutes at 4° C. The resulting pellet was re-suspended in 20 mL of ice-cold preparative buffer and stored at ˜20° C.
as §1, §2, §3, §4

T2 sequence (P32297 32-505): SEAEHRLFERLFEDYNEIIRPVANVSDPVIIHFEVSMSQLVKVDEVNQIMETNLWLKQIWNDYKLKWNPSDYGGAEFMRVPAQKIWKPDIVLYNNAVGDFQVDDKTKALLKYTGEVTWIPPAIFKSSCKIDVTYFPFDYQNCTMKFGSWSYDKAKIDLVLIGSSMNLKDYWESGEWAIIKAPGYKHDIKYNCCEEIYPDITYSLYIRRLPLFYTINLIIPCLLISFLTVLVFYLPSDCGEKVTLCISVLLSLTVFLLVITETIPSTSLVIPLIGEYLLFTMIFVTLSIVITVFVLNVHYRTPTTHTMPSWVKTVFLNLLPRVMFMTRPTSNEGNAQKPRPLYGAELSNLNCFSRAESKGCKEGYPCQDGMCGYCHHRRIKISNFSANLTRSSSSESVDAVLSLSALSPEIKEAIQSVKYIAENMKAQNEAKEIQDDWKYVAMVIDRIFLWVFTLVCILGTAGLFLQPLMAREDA
T2 sequence (P30926 22-498): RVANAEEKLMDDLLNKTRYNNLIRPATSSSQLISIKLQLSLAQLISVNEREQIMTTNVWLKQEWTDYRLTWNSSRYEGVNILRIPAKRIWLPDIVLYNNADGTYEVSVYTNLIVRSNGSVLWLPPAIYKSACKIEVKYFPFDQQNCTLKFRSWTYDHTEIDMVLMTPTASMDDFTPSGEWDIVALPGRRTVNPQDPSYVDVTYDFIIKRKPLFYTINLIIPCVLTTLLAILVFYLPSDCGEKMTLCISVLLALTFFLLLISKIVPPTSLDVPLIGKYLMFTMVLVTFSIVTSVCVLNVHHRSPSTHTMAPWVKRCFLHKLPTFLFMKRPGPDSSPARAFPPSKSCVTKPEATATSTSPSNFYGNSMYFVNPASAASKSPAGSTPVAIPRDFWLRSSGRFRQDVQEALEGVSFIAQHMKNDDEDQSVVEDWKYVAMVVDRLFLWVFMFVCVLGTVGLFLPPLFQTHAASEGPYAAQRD
T3 sequence (P43681 29-627 limits assumed): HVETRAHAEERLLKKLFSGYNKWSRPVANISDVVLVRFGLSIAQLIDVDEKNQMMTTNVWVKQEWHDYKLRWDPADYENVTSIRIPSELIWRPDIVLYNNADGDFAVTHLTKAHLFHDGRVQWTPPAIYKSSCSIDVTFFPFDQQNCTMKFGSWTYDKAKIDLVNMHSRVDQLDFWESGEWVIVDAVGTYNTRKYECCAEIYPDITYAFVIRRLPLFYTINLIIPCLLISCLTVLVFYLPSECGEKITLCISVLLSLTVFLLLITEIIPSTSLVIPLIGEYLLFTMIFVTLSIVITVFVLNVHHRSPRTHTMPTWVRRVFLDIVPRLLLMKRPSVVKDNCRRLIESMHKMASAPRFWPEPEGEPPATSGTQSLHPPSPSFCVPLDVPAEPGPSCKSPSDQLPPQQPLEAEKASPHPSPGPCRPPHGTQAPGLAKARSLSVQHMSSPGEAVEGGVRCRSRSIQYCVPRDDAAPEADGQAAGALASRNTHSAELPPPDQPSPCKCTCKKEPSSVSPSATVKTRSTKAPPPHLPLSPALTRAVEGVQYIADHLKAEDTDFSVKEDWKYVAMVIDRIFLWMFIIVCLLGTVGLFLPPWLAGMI
T3 sequence (P17787 26-502): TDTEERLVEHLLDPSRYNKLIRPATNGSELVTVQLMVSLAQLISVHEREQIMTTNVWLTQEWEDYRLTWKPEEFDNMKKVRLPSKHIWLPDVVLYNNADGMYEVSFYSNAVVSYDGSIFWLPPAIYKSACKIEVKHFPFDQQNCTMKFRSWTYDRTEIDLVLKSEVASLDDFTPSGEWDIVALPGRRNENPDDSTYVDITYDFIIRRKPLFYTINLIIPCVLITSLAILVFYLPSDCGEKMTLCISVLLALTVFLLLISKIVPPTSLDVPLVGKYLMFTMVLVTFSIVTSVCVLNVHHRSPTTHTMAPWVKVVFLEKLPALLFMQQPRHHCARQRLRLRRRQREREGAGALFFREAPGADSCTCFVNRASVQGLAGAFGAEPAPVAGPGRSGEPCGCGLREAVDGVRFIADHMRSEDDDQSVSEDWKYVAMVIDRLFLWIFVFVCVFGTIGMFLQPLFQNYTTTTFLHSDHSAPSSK
T1 sequence (P09483 31-630): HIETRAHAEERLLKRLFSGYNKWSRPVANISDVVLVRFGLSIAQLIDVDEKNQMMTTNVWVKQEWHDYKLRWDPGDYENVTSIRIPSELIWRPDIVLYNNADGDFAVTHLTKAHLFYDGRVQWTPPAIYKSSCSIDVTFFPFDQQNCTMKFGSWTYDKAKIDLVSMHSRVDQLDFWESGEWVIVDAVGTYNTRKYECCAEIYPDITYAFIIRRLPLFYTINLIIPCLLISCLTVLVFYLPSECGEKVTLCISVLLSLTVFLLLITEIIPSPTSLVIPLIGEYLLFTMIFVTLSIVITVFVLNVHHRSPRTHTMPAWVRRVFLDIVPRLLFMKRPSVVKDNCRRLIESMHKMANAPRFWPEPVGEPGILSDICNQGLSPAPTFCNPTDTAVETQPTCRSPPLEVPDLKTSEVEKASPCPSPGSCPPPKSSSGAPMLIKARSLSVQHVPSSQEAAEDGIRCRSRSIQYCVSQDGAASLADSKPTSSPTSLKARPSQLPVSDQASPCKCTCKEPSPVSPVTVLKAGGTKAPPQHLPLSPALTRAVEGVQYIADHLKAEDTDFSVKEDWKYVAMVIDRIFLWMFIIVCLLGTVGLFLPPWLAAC
T1 sequence (P12390 25-500): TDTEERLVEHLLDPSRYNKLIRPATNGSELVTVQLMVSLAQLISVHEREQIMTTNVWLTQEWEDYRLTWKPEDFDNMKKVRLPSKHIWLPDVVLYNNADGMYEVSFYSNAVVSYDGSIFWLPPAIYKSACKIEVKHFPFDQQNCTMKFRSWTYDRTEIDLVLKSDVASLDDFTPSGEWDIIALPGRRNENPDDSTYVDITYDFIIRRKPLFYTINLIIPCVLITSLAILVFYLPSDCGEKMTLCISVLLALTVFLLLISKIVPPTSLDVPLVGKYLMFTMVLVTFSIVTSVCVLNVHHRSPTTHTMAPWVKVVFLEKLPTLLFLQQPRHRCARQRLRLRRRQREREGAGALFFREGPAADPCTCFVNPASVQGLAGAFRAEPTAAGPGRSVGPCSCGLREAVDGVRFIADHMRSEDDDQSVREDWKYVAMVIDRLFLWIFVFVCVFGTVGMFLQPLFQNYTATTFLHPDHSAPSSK

c1cnc2cc3c(cc2n1)CCNCC3 [Compound A, 7,8,9,10-tetrahydro-6H-azepino[4,5-g]quinoxaline]
Ki [1]: 17 nM | EC50 ([2]; 86Rb+ efflux): 4400 nM | Emax ([2]; percentage of maximal activation induced by L-nicotine): 21% | Ki [3]: 10 nM
